# Test results from US7368578B2, “Five-membered heterocyclic compounds” (Takeda Pharmaceutical Company Limited, priority 2002, dated 2008).
# Target: T1, human PPARγ1 (Homo sapiens, UniProt P37231)
# T1 construct: expressed in transfected cells; host or cells: CHO-K1 cells stably transfected with pVgRXR2-hPPARγ and reporter plasmid pGL3-4ERPP-TK neo
# T1 sequence (P37231 1-477 isoform P37231-2): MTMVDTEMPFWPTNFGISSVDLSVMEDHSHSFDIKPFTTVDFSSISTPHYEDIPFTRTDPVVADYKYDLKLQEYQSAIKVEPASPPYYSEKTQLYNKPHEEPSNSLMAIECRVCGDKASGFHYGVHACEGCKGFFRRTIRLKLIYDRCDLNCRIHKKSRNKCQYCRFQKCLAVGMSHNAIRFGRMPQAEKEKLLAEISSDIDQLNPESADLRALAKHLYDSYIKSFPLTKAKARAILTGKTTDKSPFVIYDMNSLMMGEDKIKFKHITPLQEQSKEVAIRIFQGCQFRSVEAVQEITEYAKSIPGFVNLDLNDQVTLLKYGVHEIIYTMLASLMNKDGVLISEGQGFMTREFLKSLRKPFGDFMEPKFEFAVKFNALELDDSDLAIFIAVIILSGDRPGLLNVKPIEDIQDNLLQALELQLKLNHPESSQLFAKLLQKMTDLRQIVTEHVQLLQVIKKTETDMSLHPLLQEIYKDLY
# T1 sequence (P19793 1-462 partner): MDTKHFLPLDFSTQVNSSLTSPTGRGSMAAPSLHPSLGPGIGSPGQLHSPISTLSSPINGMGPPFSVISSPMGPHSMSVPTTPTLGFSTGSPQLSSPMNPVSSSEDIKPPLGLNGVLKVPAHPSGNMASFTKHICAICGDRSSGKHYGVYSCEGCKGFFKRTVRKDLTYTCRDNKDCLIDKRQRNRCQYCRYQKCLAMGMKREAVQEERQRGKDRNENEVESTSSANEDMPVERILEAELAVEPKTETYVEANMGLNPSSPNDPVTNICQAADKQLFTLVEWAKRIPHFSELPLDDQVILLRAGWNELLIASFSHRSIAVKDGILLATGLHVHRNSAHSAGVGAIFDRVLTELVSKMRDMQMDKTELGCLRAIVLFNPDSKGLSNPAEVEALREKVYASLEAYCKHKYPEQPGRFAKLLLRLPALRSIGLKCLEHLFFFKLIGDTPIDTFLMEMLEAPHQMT
# Test: Human PPARγ1 antagonist assay (luciferase reporter in PPARγ:RXRα:4ERPP/CHO-K1 cells)
# Assay type: cell-based
# Settings: test compound 10^−5 M, 10 nM compound A as stimulant, luciferase activity, 24 hrs, read-out: Inhibitory rate (%)
# Method: PPARγ:RXRα:4ERPP/CHO-K1 cells (obtained in Reference Example 5a) cultured in Ham's F-12 medium (GIBCO, Inc.) supplemented with 10% fetal bovine serum (TRACE SCIENTIFIC, Ltd.) were seeded in a well of a 96 well white plate at 2×10^4 cells/well and cultured under 37° C. 5% CO2 conditions for 24 hrs. After removal of the medium, Ham's F-12 medium (GIBCO) containing 60 μl of 0.1% BSA (not containing fatty acid) (Wako Pure Chemical Industries, Ltd.), 20 μl of 10^−5M or 10^−6 M test compound and 20 μl of compound A having a final concentration of 10 nM as a stimulant were added, and the cells were cultured under 37° C. 5% CO2 conditions for 24 hrs. After removal of the medium, 40 μl of Pickagene LT7.5 (Wako Pure Chemical Industries, Ltd.) 2-fold diluted with HBSS (HANKS' BALANCED SALT SOLUTION) (BIO WHITTAKER Inc.) was added. After stirring, luciferase activity was measured using 1420 ARVO Multilabel Counter (Wallac, Inc.). In addition, a test similar to the above was conducted for the non-use of the aforementioned test compound alone and for the non-use of the aforementioned test compound and compound A to determine the luciferase activity.
# The human PPARγ1 antagonistic activity of the test compound was evaluated using percentages (% inhibition) wherein the luciferase activity when 10 nM compound A alone was added was 0%, and the luciferase activity when the test compound and compound A were not added was 100%. The concentration of the test compound was 10^−5 M for the compounds of Example 42 and 315 and 10^−6 M for other test compounds.
# After a CHO-K1 cell cultured in a cell culture flask (150 cm^2) (produced by Corning Costar Corporation, USA) containing Ham's F-12 medium (produced by Life Technologies, Inc., USA) supplemented with 10% fetal bovine serum (produced by Life Technologies, Inc., USA) was detached by treating with 0.5 g/L trypsin-0.2 g/L EDTA (ethylenediaminetetraacetic acid) (produced by Life Technologies, Inc., USA), the cell was washed with PBS (phosphate-buffered saline) (produced by Life Technologies, Inc., USA), centrifuged (1000 rpm, 5 minutes), and then suspended in PBS. Subsequently, the DNA was introduced into the cells under the conditions shown below using GENE PULSER (produced by Bio-Rad Laboratories, USA).
# Namely, to a cuvette having a 0.4 cm gap, added were 8×10^6 cells and 10 μg of plasmid pVgRXR2-hPPARγ obtained in Reference Example 4a and 10 μg of reporter plasmid pGL3-4ERPP-TK neo obtained in Reference Example 2a, which was subjected to electroporation at the voltage of 0.25 kV under the capacitance of 960 μF. Subsequently, the cell was transferred into a Ham's F-12 medium containing 10% fetal bovine serum and cultured for 24 hours and then the cells were detached again and centrifuged, and then suspended in HAM F12 medium containing 10% fetal bovine serum supplemented with 500 μg/ml of GENETICIN (produced by Life Technologies, Inc., USA) and 250 μg/ml of ZEOCIN (produced by Invitrogen, USA). The obtained suspension was diluted to the density of 10^4 cells/ml and inoculated to a 96-well plate (produced by Corning Costar Corporation, USA), which was cultured in a CO2 gas incubator at 37° C., whereby obtaining a GENETICIN- and ZEOCIN-resistant transformant. Subsequently, after the transformant cell line thus obtained was cultured in a 24-well plate (produced by Corning Costar Corporation, USA), selected was a cell line in which the luciferase was expressed and induced, i.e., PPARγ:RXRα:4ERPP/CHO-K1 cell by the addition of 10 μM pioglitazone hydrochloride.
row,SMILES,inhibition at 10 µM [%]
1,"Cc1oc(-c2ccco2)nc1COc1ccc(COc2nn(Cc3ccccc3)cc2C=O)cn1 [Example 42, 1-benzyl-3-[(6-{[2-(2-furyl)-5-methyl-1,3-oxazol-4-yl]methoxy}-3-pyridinyl)methoxy]-1H-pyrazole-4-carbaldehyde]",50

# Same assay, conditions: test compound 10^−6 M, 10 nM compound A as stimulant, luciferase activity, 24 hrs, read-out: Inhibitory rate (%)
row,SMILES,inhibition at 1 µM [%]
1,"CCOC(=O)c1cn(-c2ccccc2)nc1OCc1ccc(OCc2nc(-c3ccco3)oc2C)c(OC)c1 [Example 72, ethyl 3-[(4-{[2-(2-furyl)-5-methyl-1,3-oxazol-4-yl]methoxy}-3-methoxybenzyl)oxy]-1-phenyl-1H-pyrazole-4-carboxylate]",62
2,"COc1cc(COc2nn(-c3ccccc3)cc2CO)ccc1OCc1nc(-c2ccco2)oc1C [Example 75, {3-[(4-{[2-(2-furyl)-5-methyl-1,3-oxazol-4-yl]methoxy}-3-methoxybenzyl)oxy]-1-phenyl-1H-pyrazol-4-yl}methanol]",70
3,"COc1cc(COc2nn(-c3ccccc3)cc2C=O)ccc1OCc1nc(-c2ccco2)oc1C [Example 76, 3-[(4-{[2-(2-furyl)-5-methyl-1,3-oxazol-4-yl]methoxy}-3-methoxybenzyl)oxy]-1-phenyl-1H-pyrazole-4-carbaldehyde]",63
4,"COc1cc(COc2nn(-c3ccccc3)cc2C#N)ccc1OCc1nc(-c2ccco2)oc1C [Example 77, 3-[(4-{[2-(2-furyl)-5-methyl-1,3-oxazol-4-yl]methoxy)-3-methoxybenzyl)oxy]-1-phenyl-1H-pyrazole-4-carbonitrile]",51
5,"CCOP(=O)(CCc1cn(-c2ccccc2)nc1OCc1ccc(OCc2nc(-c3ccco3)oc2C)c(OC)c1)OCC [Example 100, diethyl 2-{3-[(4-{[2-(2-furyl)-5-methyl-1,3-oxazol-4-yl]methoxy}-3-methoxybenzyl)oxy]-1-phenyl-1H-pyrazol-4-yl}ethylphosphonate]",74
6,"CCOP(=O)(/C=C/c1cn(-c2ccccc2)nc1OCc1ccc(OCc2nc(-c3ccco3)oc2C)c(OC)c1)OCC [Example 116 (E form), diethyl (E)-2-{3-[(4-{[2-(2-furyl)-5-methyl-1,3-oxazol-4-yl]methoxy}-3-methoxybenzyl)oxy]-1-phenyl-1H-pyrazol-4-yl}ethenylphosphonate]",97
7,"COc1cc(COc2nn(-c3ccccc3)cc2/C=C/P(=O)(OC(C)C)OC(C)C)ccc1OCc1nc(-c2ccco2)oc1C [Example 145, diisopropyl (E)-2-{3-[(4-{[2-(2-furyl)-5-methyl-1,3-oxazol-4-yl]methoxy}-3-methoxybenzyl)oxy]-1-phenyl-1H-pyrazol-4-yl}ethenylphosphonate]",96
8,"CCOP(=O)(/C=C/c1cn(-c2ccccc2)nc1OCc1ccc(OCc2nc(-c3ccccc3)oc2C)c(OC)c1)OCC [Example 146, diethyl (E)-2-[3-({3-methoxy-4-[(5-methyl-2-phenyl-1,3-oxazol-4-yl)methoxy]benzyl}oxy)-1-phenyl-1H-pyrazol-4-yl]ethenylphosphonate]",111
9,"COc1cc(COc2nn(-c3ccccc3)cc2/C=C/c2csc(C)n2)ccc1OCc1nc(-c2ccco2)oc1C [Example 150 (E form), 2-(2-furyl)-4-({2-methoxy-4-[({4-[(E)-2-(2-methyl-1,3-thiazol-4-yl)ethenyl]-1-phenyl-1H-pyrazol-3-yl}oxy)methyl]phenoxy}methyl)-5-methyl-1,3-oxazole]",82
10,"CCC(=O)/C=C/c1cn(-c2ccccc2)nc1OCc1ccc(OCc2nc(-c3ccco3)oc2C)c(OC)c1 [Example 156, (1E)-1-{3-[(4-{[2-(2-furyl)-5-methyl-1,3-oxazol-4-yl]methoxy}-3-methoxybenzyl)oxy]-1-phenyl-1H-pyrazol-4-yl}-1-penten-3-one]",66
11,"CCOP(=O)(/C=C/c1cn(-c2ccccc2)nc1OCc1ccc(OCc2csc(N3CCOCC3)n2)c(OC)c1)OCC [Example 191, diethyl (E)-2-{3-[(3-methoxy-4-{[2-(morpholin-4-yl)-1,3-thiazol-4-yl]methoxy}benzyl)oxy]-1-phenyl-1H-pyrazol-4-yl}ethenylphosphonate]",79
12,"CCOP(=O)(/C=C/c1cn(-c2ccccc2)nc1OCc1ccc(OCc2nc(-c3cccc(C(=O)O)c3)oc2C)c(OC)c1)OCC [Example 203, 3-[4-({4-[({4-[(E)-2-(diethoxyphosphoryl)ethenyl]-1-phenyl-1H-pyrazol-3-yl}oxy)methyl]-2-methoxyphenoxy}methyl)-5-methyl-1,3-oxazol-2-yl]benzoic acid]",111
13,"CCOP(=O)(/C=C/c1cn(-c2ccccc2)nc1OCc1ccc(OCc2nc(-c3cccc(C(=O)OC)c3)oc2C)c(OC)c1)OCC [Example 211, methyl 3-[4-({4-[({4-[(E)-2-(diethoxyphosphoryl)ethenyl]-1-phenyl-1H-pyrazol-3-yl}oxy)methyl]-2-methoxyphenoxy}methyl)-5-methyl-1,3-oxazol-2-yl]benzoate]",110
14,"CCc1nc(/C=C/c2cn(-c3ccccc3)nc2OCc2ccc(OCc3nc(-c4cccc(C(=O)O)c4)oc3C)c(OC)c2)cs1 [Example 224, 3-[4-({4-[({4-[(E)-2-(2-ethyl-1,3-thiazol-4-yl)ethenyl]-1-phenyl-1H-pyrazol-3-yl}oxy)methyl]-2-methoxyphenoxy}methyl)-5-methyl-1,3-oxazol-2-yl]benzoic acid]",112
15,"CCOP(=O)(/C=C/c1cn(-c2ccccc2)nc1OCc1ccc(OCc2nc(-c3cccc(C(N)=O)c3)oc2C)c(OC)c1)OCC [Example 239, diethyl (E)-2-(3-{[4-({2-[3-(carbamoyl)phenyl]-5-methyl-1,3-oxazol-4-yl}methoxy)-3-methoxybenzyl]oxy}-1-phenyl-1H-pyrazol-4-yl)ethenylphosphonate]",116
16,"CCOP(=O)(/C=C/c1cn(-c2ccccc2)nc1OCc1ccc(OCc2nc(-c3ccc(CC(=O)O)cc3)oc2C)c(OC)c1)OCC [Example 241, {4-[4-({4-[({4-[(E)-2-(diethoxyphosphoryl)ethenyl]-1-phenyl-1H-pyrazol-3-yl}oxy)methyl]-2-methoxyphenoxy}methyl)-5-methyl-1,3-oxazol-2-yl]phenyl}acetic acid]",113
